Laboratory results taken from US7863444B2, “4-aminopyrrolopyrimidines as kinase inhibitors” (Abbott Laboratories, priority 1997, dated 2011).

SMILES | melting point
NCc1c(-c2ccc(Oc3ccccc3)cc2)c2c(N)ncnc2n1C1CCCC1 [Example 165, 6-aminomethyl-7-cyclopentyl-5-(4-phenoxyphenyl)-7H-pyrrolo[2,3-d]pyrimidin-4-ylamine] | 196.5 to 197.5 °C
CC(C)(C)n1cc(-c2ccc(N(C=O)c3ccccc3)cc2)c2cncnc21 [Example 166, 7-tertbutyl-5-(N-formyl-4-phenylaminophenyl)pyrrolo[2,3-d]pyrimidine] | 163 to 164 °C
Nc1ncnc2c1c(-c1ccc(Oc3ccc(OCCO)cc3)cc1)cn2CCO [Example 169, 7-(2-Hydroxyethyl)-5-{4-[4-(2-hydroxyethoxy)phenoxy]phenyl}pyrrolo[2,3-d]-pyrimidin-4-ylamine] | 166 to 166.5 °C
Nc1ncnc2c1c(-c1ccc(Oc3ccccc3)cc1)cn2C1CC2CC(O)CC2C1 (centres unmarked) [Example 174, 7-[4-amino-5-(4-phenoxyphenyl)-7H-pyrrolo[2,3-d]pyrimidin-7-yl]bicyclo[3.3.0]octan-3-ol] | 193 to 194 °C

Other lines, results leading:

melting point | SMILES
198 to 200 °C | CC(C)n1cc(-c2ccc(C=O)cc2)c2c(N)ncnc21 [Example 160, 4-(4-amino-7-isopropyl-7H-pyrrolo[2,3-d]pyrimidin-5-yl)benzaldehyde]
92 to 94 °C | CC(C)n1cc(-c2ccc(Oc3ccccc3)c(CO)c2)c2c(N)ncnc21 [Example 163, 5-[4-amino-7-isopropyl-7H-pyrrolo[2,3-d]pyrimidin-5-yl]-2-phenoxybenzylalcohol]
162 to 162.5 °C | CC(C)S(=O)(=O)n1cc(-c2ccc(Oc3ccccc3)cc2)c2c(N)ncnc21 [Example 173, 7-isopropylsulphonyl-5-(4-phenoxyphenyl)-7H-pyrrolo[2,3-d]pyrimidin-4-ylamine]
199 to 200 °C | Nc1ncnc2c1c(-c1ccc(Oc3ccccc3)cc1)cn2C1CCC(O)CC1 (centres unmarked) [Example 175, 4-[4-amino-5-(4-phenoxyphenyl)-7H-pyrrolo[2,3-d]pyrimidin-7-yl]cyclohexanol]
